In patent US20100204111A1 (priority 2007, published 2010):
Bridges are numbered along the chain shown (N, C = ends). Where no end group is shown, it is not given here. [ ]: non-standard residue; d: D form. Nle = CCCC[C@H](N)C(=O)O

What was measured:
HIV-1IIIB = assay: HIV-1 antiviral assay in CEM-SS cells; assay type: cell-based
HCMV strain AD169 = assay type: cell-based; settings: MRC-5 cells
[1] = tested on: hepatitis B virus (HBV) ayw strain; assay type: cell-based; settings: 10 micrograms per ml; HepG2-2.2.15 cells; six days
[2] = tested on: Human Peripheral Blood Mononuclear Cells (PBMC), B cell proliferation; assay: B Cell Proliferation Assay (SAC plus Interleukin-2, 3H-thymidine); assay type: cell-based; settings: 10 micrograms per ml; SAC plus Interleukin-2 stimulated PBMC; combination: 0.95 mole peptide 1 and 1.05 mole peptide 2
Experimental: Human Peripheral Blood Mononuclear Cells (PBMC) were obtained from normal human donors. […] 10^5/well PBMC were plated in 96-well microtiter plates and assayed in duplicate with the peptides. […] At the end of incubation time, the plates were harvested and the cells counted by liquid scintillation for the incorporation of ^3H-thymidine as a measure of B cell proliferation.

[3] = tested on: Tumor Necrosis Factor-α (TNF-α); assay: Th1/Th2 Cytokine Profiling Assay: TNF-α; assay type: cell-based, Balb/c mice; settings: 10 micrograms per ml; Ovalbumin-restimulated Balb/c spleen cells; 72 hours
Experimental: (§1) On day 50, spleens of the mice were harvested (3 weeks after last boost with Ovalbumin). […] Thereafter, additional Ovalbumin was added to the cells at 10 micrograms/ml for in vitro restimulation of the cells. 72 hours later, cell supernatants were harvested and assayed using the Becton Dickinson Mouse Th1/Th2 Cytokine CBA Kit. This kit can be used to measure Interleukin-2 (IL-2), Interleukin-4 (IL-4), Interleukin-5 (IL-5), Interferon-γ (IFN-γ), and Tumor Necrosis Factor-α (TNF-α) protein levels in a single sample.

Interferon-γ (IFN-γ) = assay: Th1/Th2 Cytokine Profiling Assay: IFN-γ; assay type: cell-based, Balb/c mice; settings: 10 micrograms per ml; Ovalbumin-restimulated Balb/c spleen cells; 72 hours
Experimental: as §1

Interleukin-2 (IL-2) = assay: Th1/Th2 Cytokine Profiling Assay: IL-2; assay type: cell-based, Balb/c mice; settings: 10 micrograms per ml; Ovalbumin-restimulated Balb/c spleen cells; 72 hours
Experimental: as §1

Interleukin-4 (IL-4) = assay: Th1/Th2 Cytokine Profiling Assay: IL-4; assay type: cell-based, Balb/c mice; settings: 10 micrograms per ml; Ovalbumin-restimulated Balb/c spleen cells; 72 hours
Experimental: as §1

Interleukin-5 (IL-5) = assay: Th1/Th2 Cytokine Profiling Assay: IL-5; assay type: cell-based, Balb/c mice; settings: 10 micrograms per ml; Ovalbumin-restimulated Balb/c spleen cells; 72 hours
Experimental: as §1

[4] = tested on: Primary Human endothelial cells (HUVEC); assay: Endothelial Cell Migration Assay; assay type: cell-based; settings: 10 micrograms per ml, 22 hours, combination peptide 1:peptide 2 0.95 mole:1.05 mole
Experimental: Primary Human endothelial cells (HUVEC) were seeded in insert chambers with 3 micrometer pore size of multi-transwell plate for 6 hours at 37° C. in Endothelial Cell Basal Medium (EBM) supplemented with 0.1% bovine serum albumin. […] Images of 3 fields per insert were taken and the number of migrated cells per field were quantified using the ImageProPlus software. Data were analyzed for the average number of the migrated cells and standard deviation of six data points for each treatment condition. […] Statistic p values were computed using the Student's t-test.

HUVEC = assay: Endothelial Tube Formation Assay; assay type: cell-based, human; settings: 10 micrograms per ml, 20 hours, combination peptide 1:peptide 2 0.95 mole:1.05 mole
Experimental: The endothelial tube formation assay is based on the ability of endothelial cells to form three-dimensional capillary-like tubular structures when cultured on a gel of basement membrane extract. The endothelial tube formation assay represents a powerful model for studying inhibition and induction of angiogenesis. […] Positive control was vehicle only. The endothelial cells were allowed to form tubes foe 20 hours and were then examined under an inverted fluorescent microscope. Duplicate wells for each treatment were photographed and quantitatevily analyzed for an average tubule length using image analysis software ImageProPlus. Raw data were expressed as average tubule lengths in pixels ±standard deviation. Statistic p values were computed using the Student's t-test.

Molecule | antiviral activity (positive control compounds) (HIV-1IIIB) | antiviral activity (positive control compound) (HCMV strain AD169; positive control, HCMV AD169) | inhibition of HBV replication on tested liver cells [1] | inhibition of HCMV plaque formation as compared to the virus control (HCMV strain AD169; 10 micrograms per ml, 7-10 days) | induction of the proliferation of specifically stimulated human B-cells [2] [%] | TNF-a spleen cells; TH1 response (% of control) [3] | IFNγ spleen cells; TH1 response (% of control) (Interferon-γ (IFN-γ)) | IL-2 spleen cells (% of control) (Interleukin-2 (IL-2)) | IL-4 spleen cells; TH2 response (% of control) (Interleukin-4 (IL-4)) | IL-5 spleen cells; TH2 response (% of control) (Interleukin-5 (IL-5)) | inhibition of the migration of human endothelial cells [4] [%] | inhibition of the tube formation of endothelial cells (HUVEC) [%]
Cc1cn([C@H]2C[C@H](N=[N+]=[N-])[C@@H](CO)O2)c(=O)[nH]c1=O [AZT] | expected levels of antiviral activity |  |  |  |  |  |  |  |  |  |  | 
Nc1nc(O)c2ncn(COC(CO)CO)c2n1 [Ganciclovir, reference compound] |  | expected levels of antiviral activity |  |  |  |  |  |  |  |  |  | 
CC(C)(C)NC(=O)[C@@H]1CN(Cc2cccnc2)CCN1C[C@@H](O)C[C@@H](Cc1ccccc1)C(=O)N[C@H]1c2ccccc2C[C@H]1O [indinavir] | expected levels of antiviral activity |  |  |  |  |  |  |  |  |  |  | 
Tyr-Gly-Gly-Phe-Met-Thr-Ser-Glu-Lys-Ser-Gln-Thr-Pro-Leu-Val-Thr-Leu-Phe-Lys-Asn-Ala-Ile-Ile-Lys-Asn-Ala-Tyr-Lys-Lys-Gly-Glu-OH [Peptide 2] |  |  | no effect | did not inhibit | 22.7 | 110.7 % of control | 106.6 % of control | 163.9 % of control | 100.6 % of control | 103.3 % of control | 29 | 38
[dF]HLLREVLE[Nle]ARAEQLAQEAHKNRKL[Nle]EII-NH2 (lactam 19-22) [Peptide 1] |  |  |  |  | 11.1 | 120.0 % of control | 137.6 % of control | 210.4 % of control | 114.4 % of control | 90.1 % of control | 13 | 31
